Data reported in US10226471B2, “Modified-release dosage forms of 5-HT2C agonists useful for weight management” (Arena Pharmaceuticals, Inc., priority 2010, dated 2019).

Legend:
[1] = Safety in three randomized, double-blind, placebo-controlled trials (BLOOM, BLOSSOM, BLOOM-DM): discontinuation due to adverse reactions; type: in vivo, human
Experimental: (§1) The safety of Compound 1 has been evaluated in three randomized, double-blind, placebo-controlled trials, one of 2 years duration (“BLOOM” trial) and two of 1 year duration (“BLOSSOM” and “BLOOM-DM” trials). A total of 3451 patients were exposed to Compound 1 10 mg twice daily for up to 1 year; 571 patients were exposed for up to 2 years; and an additional 896 patients were exposed to Compound 1 10 mg once daily for up to 1 year. The BLOOM-DM study included only patients with type 2 diabetes mellitus; BLOOM and BLOSSOM excluded patients with diabetes.
The discontinuation rate due to adverse reaction was 7.1% for non-diabetic patients and 8.6% for patients with type 2 diabetes receiving Compound 1. The most common adverse reactions leading to discontinuation more often among Compound 1 treated patients than placebo were headache (1.3% vs. 0.8%), depression (0.9% vs. 0.5%) and dizziness (0.7% vs. 0.2%).

[2] = Adverse events in BLOOM and BLOSSOM (Table A); type: in vivo, human; conditions: 10 mg BID, N = 3195
Experimental: as §1
(§2) The most common adverse reactions for non-diabetic patients treated with Compound 1 compared to placebo were headache, upper respiratory tract infection, nasopharyngitis, dizziness, and nausea. The most common adverse reactions for diabetic patients were hypoglycemia, headache, back pain, nasopharyngitis, and nausea. Adverse events that were reported by ≥5% of patients and were more frequently reported by patients taking Compound 1 compared to placebo are summarized in Table A (BLOOM and BLOSSOM) and Table B (BLOOM DM).

[3] = Adverse events in BLOOM-DM, patients with type 2 diabetes (Table B); type: in vivo, human; conditions: 10 mg BID
Experimental: as §1, §2

[4] = Clinical trial of a single oral dose under fed and fasted conditions; type: in vivo, human; conditions: single oral dose 10 mg
Experimental: A clinical trial was performed to evaluate the safety and pharmacokinetic profile of a single oral dose of Compound 1 (10 mg) administered to healthy male and female subjects aged 18 to 60 years (inclusive) under fed and fasted conditions. […] Cmax was reduced by approximately 10% in the fed compared to fasted state, but a lack of food effect was not proven. […] Compound 1 was generally well tolerated when dosed in the fasted state and after a high-fat breakfast. There were a higher number of adverse events when dosed in the fasted state, (18 compared to 6) including two moderate intensity (nausea and headache) and one severe (vomiting) intensity events occurring in a single subject.

[5] = Pharmacokinetics parameters from an open-label, single-dose, cross-over clinical study (GastroPlus input); type: in vivo; conditions: human, oral, 10 mg, clinical study in the fed and fasted state
Experimental: The GastroPlus™ software (Simulations Plus, Inc., Lancaster, Calif.) was used to simulate the pharmacokinetics of Compound 1 from immediate-release and modified-release tablets. The release profile follows first order release kinetics and T80% is approximately 8 hours. The lower limit was not defined. Pharmacokinetics parameters of Compound 1 were obtained from an open-label, single-dose, cross-over clinical study in the fed and fasted state. Input variables and default values for GastroPlus™ simulation were as follows

[6] = not told
[7] = subcutaneous Alzet pump, 1 mg/kg/h for four days; mean
[8] = continuous subcutaneous infusion 0.630 mg/kg/h, Day 28, mean
Experimental: (§3) On Day 28, animals were placed in Culex® cages for automated blood collection. […] Analyte plasma concentrations were determined by LC/MS/MS. Noncompartmental PK analysis was performed using WinNonlin® (Pharsight®, Mountain View, Calif.) to determine t1/2, Cmaxss, Css and AUClast.

[9] = in vivo; conditions: male, Sprague-Dawley, rat, plasma, po, 24 mg/kg/day
[10] = in vivo; conditions: male, SD, rat, plasma
Experimental: as §3

[11] = clinical; conditions: human, brain (lumbar cerebrospinal fluid measured) and plasma, oral, 10 mg
[12] = physchem
[13] = Phase 3 clinical trials of lorcaserin for weight management
[14] = phase 3 trial, after 12 months, ITT-LOCF

With `C[C@H]1CNCCc2ccc(Cl)cc21` [Compound 1] the “depression leading to discontinuation” value ([1]; Compound 1 treated patients) was 0.9%, the “dizziness leading to discontinuation” value ([1]; Compound 1 treated patients) was 0.7% and the “headache leading to discontinuation” value ([1]; Compound 1 treated patients) was 1.3%. The “discontinuation rate due to adverse reaction” value ([1]; non-diabetic patients) was 7.1%, the “discontinuation rate due to adverse reaction” value ([1]; patients with type 2 diabetes) was 8.6% and the “Back pain, number of patients” value [2] was 201. For the same compound, the “Back pain, patients (%)” value [2] was “(6.3) %”, the “Constipation, number of patients” value [2] was 186 and the “Constipation, patients (%)” value [2] was “(5.8) %”. For the same compound, the “Diarrhea, number of patients” value [2] was 207, the “Diarrhea, patients (%)” value [2] was “(6.5) %” and the “Dizziness, number of patients” value [2] was 270. The “Dizziness, patients (%)” value [2] was “(8.5) %”, the “Dry mouth, number of patients” value [2] was 169 and the “Dry mouth, patients (%)” value [2] was “(5.3) %”. For the same compound, the “Fatigue, number of patients” value [2] was 229, the “Fatigue, patients (%)” value [2] was “(7.2) %” and the “Headache, number of patients” value [2] was 537. For the same compound, the “Headache, patients (%)” value [2] was “(16.8) %”, the “Nasopharyngitis, number of patients” value [2] was 414 and the “Nasopharyngitis, patients (%)” value [2] was “(13.0) %”. For the same compound, the “Nausea, number of patients” value [2] was 264, the “Nausea, patients (%)” value [2] was “(8.3) %” and the “Upper respiratory tract infection, number of patients” value [2] was 439. The “Upper respiratory tract infection, patients (%)” value [2] was “(13.7) %”, the “Urinary tract infection, number of patients” value [2] was 207 and the “Urinary tract infection, patients (%)” value [2] was “(6.5) %”. For the same compound, the “Back pain, patients (%)” value [3] was “(11.7) %”, the “Cough, patients (%)” value [3] was “(8.2) %” and the “Dizziness, patients (%)” value [3] was “(7.0) %”. For the same compound, the “Fatigue, patients (%)” value [3] was “(7.4) %”, the “Gastroenteritis viral, patients (%)” value [3] was “(7.0) %” and the “Headache, patients (%)” value [3] was “(14.5) %”. The “Back pain, number of patients” value ([3]; N = 3195) was 30, the “Cough, number of patients” value ([3]; N = 3195) was 21 and the “Dizziness, number of patients” value ([3]; N = 3195) was 18. For the same compound, the “Fatigue, number of patients” value ([3]; N = 3195) was 19, the “Gastroenteritis viral, number of patients” value ([3]; N = 3195) was 18 and the “Headache, number of patients” value ([3]; N = 3195) was 37. The “Hypertension, number of patients” value ([3]; N = 3195) was 13, the “Hypertension, patients (%)” value ([3]; N = 3195) was “(5.1) %” and the “Hypoglycemia (including asymptomatic), number of patients” value ([3]; N = 3195) was 75. The “Hypoglycemia (including asymptomatic), patients (%)” value ([3]; N = 3195) was “(29.3) %”, the “Hypoglycemia, symptomatic, number of patients” value ([3]; N = 3195) was 19 and the “Hypoglycemia, symptomatic, patients (%)” value ([3]; N = 3195) was “(7.4) %”. For the same compound, the “Influenza, number of patients” value ([3]; N = 3195) was 15, the “Influenza, patients (%)” value ([3]; N = 3195) was “(5.9) %” and the “Nasopharyngitis, number of patients” value ([3]; N = 3195) was 29. For the same compound, the “Nasopharyngitis, patients (%)” value ([3]; N = 3195) was “(11.3) %”, the “Nausea, number of patients” value ([3]; N = 3195) was 24 and the “Nausea, patients (%)” value ([3]; N = 3195) was “(9.4) %”. For the same compound, the “Procedural pain, number of patients” value ([3]; N = 3195) was 13, the “Procedural pain, patients (%)” value ([3]; N = 3195) was “(5.1) %” and the “Urinary tract infection, number of patients” value ([3]; N = 3195) was 23. For the same compound, the “Urinary tract infection, patients (%)” value ([3]; N = 3195) was “(9.0) %”, the “number of adverse events” value ([4]; after a high-fat breakfast) was 6 and the “number of adverse events” value ([4]; fasted state) was 18. For the same compound, the “food effect on overall exposure” value ([4]; fed vs fasted) was “no food effect on overall exposure”, the “reduction of Cmax in the fed compared to fasted state” value ([4]; high-fat breakfast) was “approximately 10%” and the “time of maximum plasma concentrations, fed compared to fasted” value ([4]; high-fat breakfast) was “statistically significant delay”. It also gave a blood plasma ratio ([5]; blood and plasma, read-out: Blood to plasma concentration ratio) of 1.3, a clearance ([5]; plasma) of 326 mL/min and a Vd ([5]; plasma, read-out: Apparent volume of distribution) of 307 L. The Papp [6] was 35.4 nm/s, the t1/2 (Day 6, oral gavage 24 mg/kg/day for 6 days, not fasted, composite profiles, 24 mg/kg/day) was 4.02 h and the “Css = AUC24 hr ÷ dosing interval (24 h)” value (calculated for the infusion rate of the chronic study) was 0.213 µg/mL. For the same compound, the Cl [7] was 2.96 ± 0.29 L/h/kg, the “Css from 42 to 90 hours” value [7] was 0.34 µg/mL and the “Css, 0 to 21 h” value [8] was 0.155 µg/mL. The AUC(0-inf) [9] was 5.21 µg·h/mL, the AUC(0-t) [9] was 5.21 µg·h/mL and the Cmax [9] was 0.7 µg/mL. It also gave a Tmax [9] of 0.5 h, a half-life ([9]; t1/2, Day 6, oral gavage 24 mg/kg/day for 6 days, not fasted, composite profiles) of 4 h and an AUC(0-t) ([10]; po, 24 mg/kg/day) of 4.17 µg·h/mL. The Cmax ([10]; po, 24 mg/kg/day) was 0.553 µg/mL, the AUC(0-t) ([10]; sc, 0.63 mg/kg/h) was 3.63 µg·h/mL and the Cmax ([10]; sc, 0.63 mg/kg/h) was 0.213 µg/mL. For the same compound, the Kp [11] was < 1, the logP [12] was 2.56 and the pKa [12] was 9.53. The “excess body weight lost” value ([13]; first phase 3 trial, based on a normal BMI of 25) was “about one-third”, the average weight loss [13, 14] was 12.7 pounds and the “average weight loss, of body weight” value [13, 14] was 5.8%. The “average weight lost, of their weight” value ([13]; pivotal phase 3 clinical trial program) was “about 8%”, the “patients achieved at least 10% weight loss” value ([13]; pivotal phase 3 clinical trial program, treated for up to two years) was “over one-third” and the “average weight loss, top quartile of patients” value ([13]; second phase 3 trial) was 35 pounds. For the same compound, the “average weight loss, top quartile of patients, of body weight” value ([13]; second phase 3 trial) was 16% and the “development of FDA-defined valvulopathy (echocardiograms)” value ([13]; two-year treatment period) was “no apparent drug-related effect”.
